Patent publication US9834548B2, “Pyridazine compounds as JAK inhibitors” (Portola Pharmaceuticals, Inc., priority 2014, dated 2017)
One block for each compound: values may come before it.

Key:
Format in all cases: biochemical
JAK2 = JAK2 (Homo sapiens (Human), UniProt O60674); assay: Purified kinase assay (Z'-LYTE), JAK2; settings: Table 1; read-out: JAK2 IC50
Experimental: (§1) JAK and TYK2 tyrosine phosphorylation activity is measured using the Z′-LYTE™ Technology developed by Invitrogen Corporation (Carlsbad, Calif.). For JAK1, JAK2 and JAK3 the Z′-LYTE™ Kinase Assay Kit-Tyr6 Peptide (part number PV4122) was used. For TYK2 the Z′-LYTE™ Kinase Assay Kit-Tyr6 Peptide (part number PV3192) was used. The Z′-LYTE™ biochemical assay employs a fluorescence resonance energy transfer (FRET) coupled-enzyme format and is based on the differential sensitivity of phosphorylated and non-phosphorylated peptides to proteolytic cleavage. The assay uses a synthetic peptide substrate that is labeled with a donor fluorophore (coumarin) and an acceptor fluorophore (fluorescein) that make up a FRET pair. In the primary reaction (the Kinase Reaction), the kinase transfers the γ-phosphate of ATP to a single tyrosine residue on the substrate, while the presence of a kinase inhibitor in the primary reaction suppresses phosphorylation. In the secondary reaction (the Development Reaction), a site-specific protease (the Development Reagent) is added. The development buffer quenches the Kinase Reaction, while the protease recognizes and cleaves non-phosphorylated Z′-LYTE™ peptide substrate. Cleavage disrupts FRET between the donor and acceptor fluorophores on the non-phosphorylated substrate, while uncleaved, phosphorylated substrate maintains FRET.
(§2) To test the ability of candidate molecules to inhibit JAK tyrosine phosphorylation activity, molecules are reconstituted in 100% DMSO and serially diluted 1:10 in polypropylene v-bottom microtiter plates. The candidate molecules are then diluted 1:25 into kinase buffer and 2.5 μl transferred into duplicate wells of a 384 well low volume black microtiter assay plate (Corning, USA). The final DMSO concentration in the assay is 1%. The kinase reaction contains 2.5 μl of a candidate molecule, 5 μl of catalytic domain recombinant Kinase enzyme+Tyr peptide substrate (Invitrogen, CA) and ATP (Invitrogen, CA). The kinase reaction is allowed to proceed for 1 hour at room temperature. The protease reaction is initiated by the addition of Development Reagent (Invitrogen, CA). After 1 hour incubation at room temperature the fluorescence is measured using a FlexStation plate reader (Molecular Devices, Sunnyvale, Calif.). The reader settings used are as follows: Fluorescence mode, endpoint, top read, excitation 400 nm, emission 445 nm and 520 nm, Auto Cutoff 435 nm and 515 nm, PMT sensitivity high, 6 reads per well Inhibition of JAK activity is calculated as the percent phosphorylation of substrate in the presence of inhibitor compared to the percent phosphorylation of substrate in the absence of inhibitor. IC50's were derived using Xlfit 4.3 (IDBS, UK), 4 parameter logistic model 205: Y=(A+((B−A)/(1+((C/x)^D)))).

JAK1 = JAK1 (Homo sapiens (Human), UniProt P23458); assay: Purified kinase assay (Z'-LYTE), JAK1; settings: Table 1; read-out: JAK1 IC50
Experimental: as §1, §2

JAK3 = JAK3 (Homo sapiens (Human), UniProt P52333); assay: Purified kinase assay (Z'-LYTE), JAK3; settings: Table 1; read-out: JAK3 IC50
Experimental: as §1, §2

JAK3, sequence (P52333 822-1111): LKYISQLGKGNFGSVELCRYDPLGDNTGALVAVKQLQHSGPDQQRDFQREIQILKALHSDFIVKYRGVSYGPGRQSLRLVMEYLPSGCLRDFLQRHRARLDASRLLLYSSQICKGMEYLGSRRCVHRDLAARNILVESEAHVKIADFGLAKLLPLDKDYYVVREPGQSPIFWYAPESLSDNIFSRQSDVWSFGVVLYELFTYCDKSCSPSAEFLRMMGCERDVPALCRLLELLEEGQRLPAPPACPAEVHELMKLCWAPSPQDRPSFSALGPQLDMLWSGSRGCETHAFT
JAK2, sequence (O60674 849-1124): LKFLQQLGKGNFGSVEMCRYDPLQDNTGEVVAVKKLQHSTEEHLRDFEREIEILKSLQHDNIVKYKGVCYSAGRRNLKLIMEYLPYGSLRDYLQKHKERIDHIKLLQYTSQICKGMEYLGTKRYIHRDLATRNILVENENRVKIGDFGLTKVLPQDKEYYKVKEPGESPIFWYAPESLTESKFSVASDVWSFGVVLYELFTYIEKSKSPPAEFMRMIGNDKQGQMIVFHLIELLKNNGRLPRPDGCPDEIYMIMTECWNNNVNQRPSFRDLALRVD
JAK1, sequence (P23458 875-1153): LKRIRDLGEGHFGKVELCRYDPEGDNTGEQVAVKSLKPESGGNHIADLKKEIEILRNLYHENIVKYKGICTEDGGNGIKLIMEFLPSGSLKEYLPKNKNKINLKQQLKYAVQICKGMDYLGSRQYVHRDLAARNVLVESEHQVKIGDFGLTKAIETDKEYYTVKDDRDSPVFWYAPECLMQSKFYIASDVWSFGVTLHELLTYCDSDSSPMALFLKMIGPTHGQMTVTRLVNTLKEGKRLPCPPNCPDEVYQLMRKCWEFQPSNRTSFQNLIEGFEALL

Compound: NC(=O)c1nnc(Nc2ccc(N3CCOCC3)cc2)cc1NCc1cccc(F)c1F [Compound 38]
IC50 (JAK2): 100 to 1000 nM | IC50 (JAK1): > 1000 nM | IC50 (JAK3): 10 to 100 nM

Compound: CN(C)C(=O)C1CCN(c2ccc(Nc3cc(NCc4ccccc4F)c(C(N)=O)nn3)cc2)CC1 [Compound 86]
IC50 (JAK2): 100 to 1000 nM | IC50 (JAK1): > 1000 nM | IC50 (JAK3): 10 to 100 nM

Compound: NC(=O)c1nnc(Nc2cnn(CC3CC3)c2)cc1NCc1cccc(F)c1 [Compound 119]
IC50 (JAK2): 100 to 1000 nM | IC50 (JAK1): > 1000 nM | IC50 (JAK3): 10 to 100 nM

Compound: CN(C)C(=O)Cn1cc(Nc2cc(NCc3cccc4ccsc34)c(C(N)=O)nn2)cn1 [Compound 131]
IC50 (JAK2): 100 to 1000 nM | IC50 (JAK1): 100 to 1000 nM | IC50 (JAK3): 10 to 100 nM

Compound: CC(=O)N1CCN(c2ccc(Nc3cc(NCc4ccccn4)c(C(N)=O)nn3)cc2)CC1 [Compound 78]
IC50 (JAK2): > 1000 nM | IC50 (JAK1): > 1000 nM | IC50 (JAK3): 100 to 1000 nM

Compound: CC(=O)N1CCN(c2ccc(Nc3cc(NCc4cccc(-n5ccnc5)c4)c(C(N)=O)nn3)cc2)CC1 [Compound 68]
IC50 (JAK2): > 1000 nM | IC50 (JAK1): > 1000 nM | IC50 (JAK3): 10 to 100 nM

Compound: CC(C)Nc1cc(Nc2ccc(N3CCNCC3)cc2)nnc1C(N)=O [Compound 12]
IC50 (JAK2): > 1000 nM | IC50 (JAK1): > 1000 nM | IC50 (JAK3): > 1000 nM

Compound: CN(C)C(=O)N1CCC(Cn2cc(Nc3cc(NCc4cccc(F)c4F)c(C(N)=O)nn3)cn2)CC1 [Compound 133]
IC50 (JAK2): 100 to 1000 nM | IC50 (JAK1): > 1000 nM | IC50 (JAK3): 1 to 10 nM

Compound: CC(=O)N1CCC(Cn2cc(Nc3cc(NCc4cccc5ccsc45)c(C(N)=O)nn3)cn2)CC1 [Compound 125]
IC50 (JAK2): 10 to 100 nM | IC50 (JAK1): 100 to 1000 nM | IC50 (JAK3): 1 to 10 nM

Compound: CCC(=O)N1CCN(c2ccc(Nc3cc(NCc4cc(F)ccc4F)c(C(N)=O)nn3)cc2)CC1 [Compound 32]
IC50 (JAK2): 10 to 100 nM | IC50 (JAK1): > 1000 nM | IC50 (JAK3): 1 to 10 nM

Compound: NC(=O)c1nnc(Nc2cnn(CC3CCOCC3)c2)cc1NCc1cccc(F)c1F [Compound 124]
IC50 (JAK2): 100 to 1000 nM | IC50 (JAK1): > 1000 nM | IC50 (JAK3): 1 to 10 nM

Compound: CCC(=O)N1CCC(Cn2cc(Nc3cc(NCc4cccc(F)c4)c(C(N)=O)nn3)cn2)CC1 [Compound 130]
IC50 (JAK2): 100 to 1000 nM | IC50 (JAK1): > 1000 nM | IC50 (JAK3): 10 to 100 nM

Compound: CC(=O)N1CCN(c2ccc(Nc3cc(NCc4cccc(C)c4)c(C(N)=O)nn3)cc2)CC1 [Compound 47]
IC50 (JAK2): 100 to 1000 nM | IC50 (JAK1): > 1000 nM | IC50 (JAK3): 10 to 100 nM

Compound: CCC(=O)N1CCC(Cn2cc(Nc3cc(NCc4cccc(F)c4F)c(C(N)=O)nn3)cn2)CC1 [Compound 129]
IC50 (JAK2): 100 to 1000 nM | IC50 (JAK1): 100 to 1000 nM | IC50 (JAK3): 1 to 10 nM

Compound: NC(=O)c1nnc(Nc2ccc(C(=O)N3CCCC3)cc2)cc1NCc1cccc(F)c1F [Compound 83]
IC50 (JAK2): 100 to 1000 nM | IC50 (JAK1): > 1000 nM | IC50 (JAK3): 1 to 10 nM

Now from value to compound:

IC50 (JAK2): > 1000 nM | IC50 (JAK1): > 1000 nM | IC50 (JAK3): 10 to 100 nM
Compound: CN(C(=O)C1CC1)c1ccc(Nc2cc(NCc3cccc(F)c3F)c(C(N)=O)nn2)cc1 [Compound 44]

IC50 (JAK2): 100 to 1000 nM | IC50 (JAK1): > 1000 nM | IC50 (JAK3): 10 to 100 nM
Compound: NC(=O)c1nnc(Nc2ccc(C(=O)N3CCCC3)cc2)cc1NCc1cccc(F)c1 [Compound 52]

IC50 (JAK2): 100 to 1000 nM | IC50 (JAK1): > 1000 nM | IC50 (JAK3): 10 to 100 nM
Compound: NC(=O)c1nnc(Nc2ccc(N3CCOCC3)cc2)cc1NCc1cccc(F)c1 [Compound 35]

IC50 (JAK2): 100 to 1000 nM | IC50 (JAK1): > 1000 nM | IC50 (JAK3): 1 to 10 nM
Compound: NC(=O)c1nnc(Nc2ccc(N3CCS(=O)(=O)CC3)cc2)cc1NCc1cccc(F)c1 [Compound 94]

IC50 (JAK2): 100 to 1000 nM | IC50 (JAK1): > 1000 nM | IC50 (JAK3): 10 to 100 nM
Compound: CC(C)(c1ccc(Nc2cc(NCc3cccc(F)c3)c(C(N)=O)nn2)cc1)S(C)(=O)=O [Compound 95]

IC50 (JAK2): 100 to 1000 nM | IC50 (JAK1): > 1000 nM | IC50 (JAK3): 10 to 100 nM
Compound: Cn1ccc(Nc2cc(NCc3cccc(F)c3)c(C(N)=O)nn2)n1 [Compound 67]

IC50 (JAK2): > 1000 nM | IC50 (JAK1): > 1000 nM | IC50 (JAK3): 10 to 100 nM
Compound: CS(=O)(=O)Cc1cccc(Nc2cc(NCc3cccc(F)c3)c(C(N)=O)nn2)c1 [Compound 91]

IC50 (JAK2): 100 to 1000 nM | IC50 (JAK1): > 1000 nM | IC50 (JAK3): 100 to 1000 nM
Compound: CC(=O)N(C)c1ccc(Nc2cc(NCc3cccc(F)c3)c(C(N)=O)nn2)cc1 [Compound 101]
